Laboratory results published in a melting point compilation (Tetko et al.; mined from patent text by program, amines drawn as free bases though some values may be those of a salt).

For `Nc1nc2c(s1)CCN(CC=Cc1ccc3[nH]ccc3c1)CC2`, the melting point was 60 to 65 °C.
Work on `COC(C)(OC)C(C#N)=Cc1ccccc1` yielded a melting point of 45 to 46 °C.
Compound `C=C(C)C(=O)OC1=CC(C(=O)O)C(O)(C(C)=O)C=C1` (stereo unspecified) has a melting point of 150 °C.
`Nc1cnc(F)c(Br)c1` gave a melting point of 91 to 92 °C.
`COc1ccccc1N1CCN(CC(O)COc2ccc(OCc3ccccc3)c(C(C)(C)C)c2)CC1` (stereo unspecified) gave a melting point of 133 to 134 °C.
Work on `N#Cc1cc(N)ccc1N1CCC(OC(=O)c2ccccc2)CC1` yielded a melting point of 154 to 155 °C.
In the case of `Cc1cc(C)c2c(c1)nc(NC1CCN(CCO)CC1)n2Cc1nc(C)ccc1O`, the melting point is reported as 143 °C.
Compound `COC(=O)c1cc(OC)c(Br)c(OC)c1` has a melting point of 120 to 122 °C.
`NNc1nncc(-c2cccc(Cl)c2)n1` gave a melting point of 163 to 166 °C.
`CCOC(=O)c1cccc(-c2nc(-c3cc(Cl)sc3Cl)cs2)c1` gave a melting point of 125 to 126 °C.
`CC(C)(c1ccc(OS(=O)(=O)c2ccccc2)cc1)c1ccc(OS(=O)(=O)c2ccccc2)cc1` showed a melting point of 92 to 93 °C.
For `O=C1CCC(N2Cc3c(CNC(=O)c4ccncc4)cccc3C2=O)C(=O)N1` (stereo unspecified), the melting point was 282 to 284 °C.
Work on `O=S(=O)(c1cccc(-c2cc(-c3nc(-c4ccc(C(F)(F)F)cc4)cc(C(F)(F)F)n3)ccn2)c1)N1CCOCC1` yielded a melting point of 202 °C.
With `CNC(=S)Nc1ccccc1N1CCCC1` the melting point was 125 to 126 °C.
Compound `CN1CCC(OC(c2cccc(N=[N+]=[N-])c2)c2nc3ccccc3[nH]2)CC1` (stereo unspecified) has a melting point of 53 °C.
`O=C(O)c1ccc(S(=O)(=O)Nc2cc3c4c(c2)CCCC4CCC3)cc1` showed a melting point of 266 to 268 °C.
In the case of `Cc1cc(C)c(C)c(-c2cc3cnc(N)nc3nc2NC(=O)NC(C)(C)C)c1C`, the melting point is reported as > 300 °C.
Compound `O=C(O)C#CC(=O)c1ccc2c(c1)OCO2` has a melting point of 122 to 124 °C.
With `COc1c2occc2cc2cc(C(=O)O)c(=O)oc12` the melting point was 227 to 228 °C.
In the case of `Cc1cc2c(c(C)c1SC#N)CCC(C)(C)O2`, the melting point is reported as 96 to 97 °C.
With `CCCCCCCCc1ccc(CCC(NC(C)=O)(C(=O)OCC)C(=O)OCC)s1` the melting point was 57 to 58 °C.
In the case of `Cc1cccc(NC(=O)NCC(=O)N2[C@@H](c3ccccc3F)SC[C@H]2C(=O)OC(C)(C)C)c1`, the melting point is reported as 107 °C.
Work on `Cn1c(C(F)(F)F)ccc(-c2cc(S(C)=O)c(Cl)cc2F)c1=O` (stereo unspecified) yielded a melting point of 147 to 148 °C.
Work on `NC(=O)CN1C[C@@H]2CCC[C@@H]2C1=O` (relative stereo) yielded a melting point of 138 to 141 °C.
Work on `O=C(CCCCCCCCCC=C(F)F)Nc1ccccc1Cl` yielded a melting point of 54 to 55 °C.
In the case of `Nc1nc2ccc(Sc3ccccc3)cc2s1`, the melting point is reported as 180 to 182 °C.
With `CCCCCCCN(CCCCCSc1nc2c([nH]1)CCCC2)C(=O)Nc1ccc(F)cc1F` the melting point was 98 to 100 °C.
For `CCC1CC(=O)NN=C1c1ccc2nc(-c3ccncc3)[nH]c2c1` (stereo unspecified), the melting point was 299 to 302 °C.
Compound `COC(=O)c1cc(N)cs1` has a melting point of 76 to 78 °C.
`CC[C@@H](c1ccc(F)cc1)N(Cc1ccc(C(=O)OC)cc1)S(=O)(=O)c1ccc(Cl)cc1` gave a melting point of 73 to 75 °C.
`CCOCCNC(=O)c1cccc(-c2cccc3cc(Cc4cc(F)cc(Cl)c4)sc23)c1` gave a melting point of 79 to 80 °C.
`O=C1C(=O)c2ccccc2C2=C1SCC1(CCN(C(=O)C=Cc3ccccc3Cl)CC1)O2` gave a melting point of 110 to 115 °C.
`O=C(O)Cc1c(C(=O)c2cc3ccccc3cn2)[nH]c2ccc(Cl)cc12` gave a melting point of 239 to 240 °C.
In the case of `CCN1C(=O)N(c2ccc(C#N)c(C(F)(F)F)c2)C(=O)C1(CO)CO`, the melting point is reported as 155 to 156 °C.
`COc1ccc(CNc2ccc(O)c(C(=O)O)c2)cc1` gave a melting point of 205 to 206 °C.
For `CCC1(NC2=NS(=O)(=O)c3sc(Cl)cc3N2)CCC1`, the melting point was 244 to 246 °C.
In the case of `CN(C)CCCCCCSc1ncccc1C(=O)c1cccs1`, the melting point is reported as 69 to 71 °C.
Work on `COc1cc(C(=O)N2CC3CC(C2)CN(C(C)C)C3)cc(OC)c1OC` yielded a melting point of 67.5 to 69.5 °C.
Compound `O=c1ncc(Br)cn1COCc1ccccc1` has a melting point of 169 °C.
`CC(C)(C)OC(=O)N1CCOc2ccc(Br)cc2S1(=O)=O` gave a melting point of 119 °C.
With `CC1(c2ccc(COc3ncc(Br)s3)cc2)OCCO1` the melting point was 129 to 131 °C.
